Source: publication PMC9044549 (RSC Advances, 2021)

How the values were obtained:
[1] = tested on: MCF-7 breast cancer cells; test: In vitro anti-proliferative activity, MTT assay; format: cell-based; settings: Homo sapiens, MCF7, read-out: In vitro anti-proliferative activities MCF-7 IC50
[2] = tested on: HCT-116, HepG-2 and MCF-7 cells; format: cell-based; settings: Homo sapiens, read-out: IC50 values against the three cell lines (range)

SMILES	IC50 [1]	IC50 [2]
COc1cc(-c2ccc(C(=O)N/N=C/c3ccc(Cl)cc3)c(C)n2)cc(OC)c1OC [Vg, (E)-N′-(4-Chlorobenzylidene)-2-methyl-6-(3,4,5-trimethoxyphenyl)nicotinohydrazide]	31.5 ± 0.7 µM	10.8 to 31.5 µM
COc1cc(-c2ccc(C(=O)N/N=C/c3ccc([N+](=O)[O-])cc3)c(C)n2)cc(OC)c1OC [Vj, (E)-2-Methyl-N′-(4-nitrobenzylidene)-6-(3,4,5-trimethoxyphenyl)nicotinohydrazide]	4.82 ± 0.05 µM	3.25 to 9.15 µM
COc1cc(-c2ccc(C(=O)N/N=C/c3ccncc3)c(C)n2)cc(OC)c1OC [Vk, (E)-2-Methyl-N′-(pyridin-4-ylmethylene)-6-(3,4,5-trimethoxyphenyl)nicotinohydrazide]	17.5 ± 0.57 µM	10.8 to 31.5 µM
COc1cc(-c2ccc(C(=O)N/N=C/c3cc(Cl)ccc3Cl)c(C)n2)cc(OC)c1OC [Vh, (E)-N′-(2,5-Dichlorobenzylidene)-2-methyl-6-(3,4,5-trimethoxyphenyl)nicotinohydrazide]	30.1 ± 0.75 µM	10.8 to 31.5 µM
COc1cc(-c2ccc(C(=O)N/N=C/c3ccc(O)cc3)c(C)n2)cc(OC)c1OC [Va, (E)-N′-(4-Hydroxybenzylidene)-2-methyl-6-(3,4,5-trimethoxyphenyl)nicotinohydrazide]	21.5 ± 0.67 µM	10.8 to 31.5 µM
COc1ccc(/C=N/NC(=O)c2ccc(-c3cc(OC)c(OC)c(OC)c3)nc2C)cc1OC [Vc, (E)-N′-(3,4-Dimethoxybenzylidene)-2-methyl-6-(3,4,5-trimethoxyphenyl)nicotinohydrazide]	9.15 ± 0.31 µM	3.25 to 9.15 µM
CCOc1ccc(/C=N/NC(=O)c2ccc(-c3cc(OC)c(OC)c(OC)c3)nc2C)cc1 [Ve, (E)-N′-(4-Ethoxybenzylidene)-2-methyl-6-(3,4,5-trimethoxyphenyl)nicotinohydrazide]	46.6 ± 0.95 µM	–
COc1cc(OC)c(/C=N/NC(=O)c2ccc(-c3cc(OC)c(OC)c(OC)c3)nc2C)c(OC)c1 [Vd, (E)-2-Methyl-N′-(2,4,6-trimethoxybenzylidene)-6-(3,4,5-trimethoxyphenyl)nicotinohydrazide]	15.8 ± 0.46 µM	10.8 to 31.5 µM
COc1ccccc1/C=N/NC(=O)c1ccc(-c2cc(OC)c(OC)c(OC)c2)nc1C [Vb, (E)-N′-(2-Methoxybenzylidene)-2-methyl-6-(3,4,5-trimethoxyphenyl)nicotinohydrazide]	8.5 ± 0.24 µM	3.25 to 9.15 µM

The next lines start with the values.

IC50 [1]	IC50 [2]	SMILES
25.2 ± 0.64 µM	10.8 to 31.5 µM	COc1cc(-c2ccc(-c3nnc(SCCCBr)o3)c(C)n2)cc(OC)c1OC [VIIIc, 2-[(3-Bromopropyl)thio]-5-[2-methyl-6-(3,4,5-trimethoxyphenyl)pyridin-3-yl]-1,3,4-oxadiazole]
6.32 ± 0.14 µM	3.25 to 9.15 µM	COc1cc(-c2ccc(C(=O)N/N=C/c3cc(C)ccc3C)c(C)n2)cc(OC)c1OC [Vf, (E)-N′-(2,5-Dimethylbenzylidene)-2-methyl-6-(3,4,5-trimethoxyphenyl)nicotinohydrazide]
27.2 ± 0.68 µM	10.8 to 31.5 µM	CCCCCCSc1nnc(-c2ccc(-c3cc(OC)c(OC)c(OC)c3)nc2C)o1 [VIIId, 2-(Hexylthio)-5-[2-methyl-6-(3,4,5-trimethoxyphenyl)pyridin-3-yl]-1,3,4-oxadiazole]
18.2 ± 0.55 µM	10.8 to 31.5 µM	COc1cc(-c2ccc(-c3nnc(SC)o3)c(C)n2)cc(OC)c1OC [VIIIa, 2-[2-Methyl-6-(3,4,5-trimethoxyphenyl)pyridin-3-yl]-5-(methylthio)-1,3,4-oxadiazole]
14.8 ± 0.37 µM	–	CCSc1nnc(-c2ccc(-c3cc(OC)c(OC)c(OC)c3)nc2C)o1 [VIIIb, 2-(Ethylthio)-5-[2-methyl-6-(3,4,5-trimethoxyphenyl)pyridin-3-yl]-1,3,4-oxadiazole]
21.4 ± 0.45 µM	10.8 to 31.5 µM	COc1cc(-c2ccc(-c3nnc(SCC4CCCCC4)o3)c(C)n2)cc(OC)c1OC [VIIIe, 2-[(Cyclohexylmethyl)thio]-5-[2-methyl-6-(3,4,5-trimethoxyphenyl)pyridin-3-yl]-1,3,4-oxadiazole]
